Among the data in PubChem BioAssay AID179 (DTP/NCI, 2004) are EC50, IC50 and outcome values, retold here.

pEC50, pIC50: −log10 of the molar value. Activity calls are given as the source filed them.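 How the source made its calls: active means compounds giving half or more protection of infected cells from virus-caused growth loss, again on retest; inactive means the rest.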

The assay relates to CEM cells HIV-1 protection, formazan growth assay. Nature of the assay: NCI AIDS Antiviral Assay. The conditions noted are these: for pIC50: measured here: growth of uninfected CEM cells. In outline:
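Protection of CEM cells against HIV-1 measured as cell growth via soluble formazan read-out, with five concentrations tested on both infected and uninfected cells; failure to protect may reflect toxicity.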

What is called pEC50 is the EC50 on a negative log10 scale, so that one unit is a factor of ten. The term pIC50 denotes the negative decadic logarithm of the IC50, by convention in mol/L. High values mean a low IC50, low ones a high IC50.

`CCOC(=O)C(C(=O)OCC)C1c2ccccc2-c2ccccc21`: the pEC50 was under 3.70 and the pIC50 was 4.11. In the case of `O=C1CCC2=C(CCC2)N1CCc1ccc2c(c1)OCO2`, the result was inactive.

For `COc1ccc(C2c3cc4c(cc3OC(Nc3ccccc3)C2C)OCO4)cc1` (stereo not given), the pEC50 is under 3.70 and the negative-log IC50 (pIC50) is 4.61. In the same order, the values of `CCCCCCCCN1CCCN(/N=C/c2c3c(O)c4c(O)c(C)c5c(c4c2O)C(=O)C(C)(O/C=C/C(OC)C(C)C(OC(C)=O)C(C)C(O)C(C)C(O)C(C)/C=C/C=C(C)C(=O)N3)O5)CC1` (stereo not given) are under 3.70 and 5.14. As for `CN1CCN(c2[nH]c(=O)n(-c3ccccc3)c(=S)c2C#N)CC1`, the pEC50 was under 3.70 and the pIC50 was under 3.70. With `COC1(OC)CC2C(=O)N(Cc3ccccc3)C1CC2S(=O)(=O)c1ccccc1` (stereo not given), the result was inactive. Turning to `COC(=O)/C(=N/O)C(C(=O)OC)C(=O)C(=O)Nc1c(Cl)cc(C)cc1S(=O)(=O)O` (stereo not given), the pEC50 was under 3.26 and the pIC50 is under 3.26. Take `CCOC(=O)c1ccc(Nc2cnc3cc(C(F)(F)F)ccc3n2)cc1`: the pEC50 is under 3.70 and the pIC50 was 3.85.

On to `COc1ccccc1C1(c2ccccc2OC)OC(=O)c2ccccc21`, for which the pEC50 was under 3.70 and the pIC50 was 4.51. Consider `Oc1[nH]c2ccccc2c1N=Nc1nc(-c2ccccc2)cs1`, for which the pEC50 is under 3.70 and the pIC50 is under 3.70. With `Nc1ncc2c(ncn2CCO)n1`, the pEC50 is under 3.55 and the pIC50 is under 3.55.

As to `Nc1ccc([N+](=O)[O-])cc1N=C/C=C/c1ccccc1`, the pEC50 was under 4.99 and the negative-log IC50 (pIC50) was under 4.99. Turning to `Cc1cc(C)nc(NS(=O)(=O)c2ccc(NC(=O)c3cccc4c(Nc5ccc(S(N)(=O)=O)cc5)c5ccccc5nc34)cc2)n1`, the pEC50 was under 4.26 and the pIC50 is 4.66. Taken in the same sequence, the figures for `O=c1[nH]c2ccccc2c(=O)n1/N=C\c1ccccc1O` were under 3.70 and under 3.70. Regarding `CNC(=O)NCCN1CC2CCC(CC2)C1`, the pEC50 was under 3.70 and the pIC50 was under 3.70. As for `COc1ccc(Cl)c2c1[nH]c1nc3nc4cc(Cl)ccc4n3nc12`, the pEC50 was under 4.00 and the pIC50 is under 4.00. As for `COC1(OC)CC(CO)(CNc2nc(N)nc(Cl)c2C=O)C1`, the pEC50 is under 3.79 and the pIC50 was 4.85. In the same order, the values of `CC(=S)N=Cc1c(N)[nH]n(-c2ccccc2)c1=O` are under 3.70 and under 3.70. Consider `O=c1cc2cc(O)[nH]c(=O)c2c(O)[nH]1`, for which the result was inactive. Regarding `O=c1c2c(oc3ccccc13)-c1ccccc1OC2`, the pEC50 was under 3.70 and the pIC50 is under 3.70. Take `O=[N+]([O-])c1ccc(Sc2c3ccccc3nc3ccccc23)cc1`: the pEC50 is under 5.36 and the pIC50 was under 5.36. Take `COc1ccccc1N1C(=O)/C(=C\c2cccc(Oc3ccccc3)c2)SC1c1ccccc1` (stereo not given): the pEC50 is under 3.70 and the pIC50 is 4.28. As to `Cc1cc2c(c(S(=O)(=O)c3ccc(Cl)cc3[N+](=O)[O-])c1)NCCC2`, the pEC50 was under 4.12 and the pIC50 is 4.56. On to `O=C1c2c(nc3ccccc3c2-c2ccccc2)CN1Nc1ccccn1`, for which the pEC50 was under 3.85 and the pIC50 was under 3.85. Turning to `CCCCCCCC(=O)c1ccc(O)c(C(=O)Nc2ccc(C(F)(F)F)cc2)c1`, the pEC50 was under 4.48 and the pIC50 was 5.30. Taken in the same sequence, the figures for `Cc1ccc2c(c1)C(=S)N1CSCC1c1nncn1-2` (stereo not given) were under 3.70 and under 3.70. Taken in the same sequence, the figures for `CN(C)CCNC(=O)Cn1cnc2cccc([N+](=O)[O-])c2c1=O` were under 3.70 and under 3.70. In the same order, the values of `O=C(O)CCCCCCC(=O)O` are under 2.84 and under 2.84. For `COc1ccc(-c2ccccc2)cc1SSc1cc(-c2ccccc2)ccc1OC`, the pEC50 was under 3.70 and the pIC50 was 3.75. Taken in the same sequence, the figures for `CCC(C(=O)NNC(=O)c1cc(OC)c(OC)c(OC)c1)c1ccccc1` (stereo not given) were under 3.70 and 3.71.

Regarding `C[N+]1(CC(=O)c2ccc(O)c(O)c2)CCOCC1`, the pEC50 is under 3.70 and the pIC50 is under 3.70.

With `COC(=O)/C=C(\C(=O)OC)c1c(C)c(C)c2c(C)cc(C)cc(C)c1-2`, the pEC50 was under 3.70 and the pIC50 is 4.78. Turning to `CCCCC[C@@H]1OC(=O)/C(=C2/CC[C@@H](CCCC)O2)C(=O)[C@@H]1O`, the result was inactive. Regarding `COc1ccccc1/C=C1\S/C(=N/Nc2nc(C)c(C(C)=O)s2)NC1=O`, the pEC50 was under 3.70 and the negative logarithm of the IC50 (pIC50) is 3.95. As for `OCC1CCCC1O` (stereo not given), the outcome was inactive. With `COc1cc2c(cc1O)C1(C(=O)c3ccc4c(c3[C@H]1O)OCO4)N(C)CC2` (stereo not given in full), the outcome was inactive. Consider `OC(Cc1cnnc2ccccc12)C(Cl)(Cl)Cl` (stereo not given), for which the pEC50 is under 3.70 and the pIC50 is 4.15. In the same order, the values of `O=C(O)c1cccc(S(=O)(=O)c2ccc([N+](=O)[O-])cc2)c1` are under 3.70 and under 3.70. In the same order, the values of `Cc1nnc(NS(=O)(=O)c2ccc(N=NC3SC(=S)NC3=O)cc2)s1` (stereo not given) are under 3.70 and under 3.70.

For the compound `COC1/C=C\OC2(C)Oc3c(C)c(O)c4c(O)c(c(C=Nc5ccc6ccccc6c5)c(O)c4c3C2=O)NC(=O)/C(C)=C\C=C/C(C)C(O)C(C)C(O)C(C)C(OC(C)=O)C1C` (stereo not given), the pEC50 is under 3.70 and the pIC50 is 4.45. In the same order, the values of `C[C@@H](CO)C1=C(O)c2ccc3c(c2C(=O)C1=O)CCCC3(C)C` are under 3.70 and 4.82. As to `COC(=O)c1cc(C(=CCC[C@H]2CC[C@@]3(C)C(CC[C@@H]4C3CC[C@@]3(C)C4CC[C@@H]3[C@H](C)CCCC(C)C)C2)c2cc(Cl)c(OC)c(C(=O)OC)c2)cc(Cl)c1OC` (stereo not given in full), the pEC50 was under 4.80 and the pIC50 is under 4.80. For `COc1ccc(/C(=N/Nc2nc3ccccc3n2Cc2ccccc2)C(=O)O)cc1`, the pEC50 was under 3.70 and the pIC50 was 5.37.

Regarding `O=C(Nc1cccc(F)c1)c1c(O)[nH]c(=S)[nH]c1=O`, the pEC50 was under 5.29 and the pIC50 was under 5.29. As to `OC1CN2CC[C@H](O)C2C(O)[C@@H]1O` (stereo not given in full), the pEC50 is 4.21 and the pIC50 was 2.88.

In the case of `N#CC1C(=O)NC(=O)C(C#N)C12CCCC(C(F)(F)F)C2` (stereo not given), the pEC50 is under 3.70 and the pIC50 is under 3.70.

`Cc1nn(C(=O)CC(=O)Nc2ccc(Cl)cc2)c(C)c1N=Nc1ccccc1C(=O)O`: the pEC50 was under 4.37 and the pIC50 is under 4.37.

For the compound `CCOC(=O)C(=O)c1c2cn(O)nc(OC)c-2nc1[N+](=O)[O-]`, the pEC50 was under 3.09 and the negative-log IC50 (pIC50) was 3.27.

Regarding `CC/C=C\C/C=C\C1CC(=O)NCCCNCCCCN1` (stereo not given), the outcome was inactive.

Consider `CC(=O)NC(CCCNC(=O)N(CCCl)N=O)C(=O)NCc1ccccc1` (stereo not given), for which the pEC50 was under 3.20 and the pIC50 is 4.16. With `CCOC(=O)/N=N/C(C)(C)OC(C)=O`, the pEC50 was under 3.70 and the pIC50 is under 3.70. As for `S=C(Nc1ccccn1)Nc1ccccn1`, the pEC50 is under 3.70 and the negative-log IC50 (pIC50) was 3.71. For the compound `c1ccc2c3c([nH]c2c1)C1CCCN1CC3` (stereo not given), the pEC50 is under 3.21 and the pIC50 was 3.76. Taken in the same sequence, the figures for `C=CCOC1CC(n2cnc3c(N)ncnc32)OC1CO` (stereo not given) were under 3.70 and under 3.70. Consider `Clc1nc(NC2CCCCC2)nc(NC2CCCCC2)n1`, for which the result was inactive.

For the compound `N#CC1=C(O)NC(O)=C(C#N)C12C(=O)Nc1ccccc12`, the pEC50 was under 3.10 and the negative-log IC50 (pIC50) was under 3.10. Take `COC(=O)/C=C\COCC1C2CCC(=O)C21` (stereo not given): the pEC50 was under 4.30 and the negative-log IC50 (pIC50) is 4.55.

In the case of `O=c1[nH]c(Nc2nc3ccccc3[nH]2)nc2c1CCC2`, the pEC50 is under 3.70 and the pIC50 was under 3.70.

For the compound `O=C1N[C@H](C(=O)O)[C@@H](c2ccc(OCc3ccccc3)cc2)O1`, the pEC50 was under 3.70 and the pIC50 was under 3.70. Consider `Clc1cc(Cl)c2c(Cl)cc(Cl)c3c2c1N=S=N3`, for which the outcome was inactive. Take `CC(=O)N=C1N(/C=C2\C(=O)Oc3ccccc3C2=O)C(=O)/C(=C/c2ccco2)N1C`: the pEC50 is under 3.70 and the pIC50 was 4.16. Taken in the same sequence, the figures for `CCOP(=O)(OCC)/C(C#N)=C/c1cccn1N(C)C` were under 3.59 and 3.61. In the same order, the values of `CCOC(=O)C(=CNC(=S)Nc1ccc(OCC)cc1)C(=O)OCC` are under 3.70 and 3.95. Taken in the same sequence, the figures for `CCN(CC)CCNc1cccc2oc3ccc(OS(=O)(=O)c4ccc(C)cc4)cc3c(=O)c12` were under 4.82 and 5.20.

In the case of `Cn1c(-c2csc(-c3ccc(Cl)cc3)n2)n[nH]c1=S`, the pEC50 was under 3.70 and the pIC50 is under 3.70. With `CC(C)(C)C(=O)C(c1ccc(-c2cscn2)cc1)c1ccc(-c2cscn2)cc1`, the pEC50 was under 5.60 and the negative logarithm of the IC50 (pIC50) was under 5.60.

As for `O=C(CSc1nnc(-c2ccc(N=Cc3ccc(Cl)cc3)cc2)o1)Nc1ccccc1[N+](=O)[O-]`, the pEC50 was under 4.69 and the pIC50 was under 4.69. As to `OCC1OC(n2cnc(C3=NCC(O)CN3)n2)C(O)C1O` (stereo not given), the outcome was inactive. As to `Cc1cc(-c2ccccn2)oc(=O)c1NC(=O)c1ccccc1`, the pEC50 is under 3.70 and the pIC50 was 4.52.

As to `C=CCNC(=S)NNC(=O)c1c(C)nc2sccn12`, the pEC50 was under 3.07 and the pIC50 is 3.09.

Turning to `O=C(c1ccc(Cl)cc1)c1ccc(OCCCOc2ccc(C(=O)c3ccc(Cl)cc3)cc2)cc1`, the pEC50 was under 4.70 and the pIC50 was under 4.70. On to `O=[N+]([O-])c1cc2ccc(N(CCO)CCO)nc2nc1N(CCO)CCO`, for which the pEC50 is under 3.70 and the pIC50 was under 3.70. With `C=C1CCC2C(C)(CO)C(O)CCC2(C)C1CC(O)/C(=C/CO)C(=O)O` (stereo not given), the outcome was inactive.
